According to paper PMC13124246 (European journal of medicinal chemistry, 2022):
Structures can show the parent of a compound that is named as a salt.

Experiments:
cruzain or TbrCatL = experiment: Screening of the Krake et al. compound set against cruzain and TbrCatL; assay type: biochemical; settings: 100 μM
[1] = tested on: Mouse myoblasts cell line C2C12; experiment: Host cell cytotoxicity; assay type: cell-based; settings: mouse myoblasts vs T. cruzi, compounds tested up to 10 μM
cathepsins S (human) = settings: human enzyme; cited from earlier work
cathepsins B (rat) = settings: rat enzyme; cited from earlier work
macrophages = settings: cited from earlier work
[2] = tested on: T. cruzi Y strain parasites; settings: in vitro; cited from earlier work
TbrCatL [3] = molecular target: T1, TbrCatL (Trypanosoma brucei rhodesiense, UniProt Q95PM0); settings: read-out: IC50 TbrCatL; cited from earlier work
TbrCatL [4] = molecular target: T1, TbrCatL; assay type: biochemical, T. brucei
cruzain = cruzain (Trypanosoma cruzi, UniProt P25779); experiment: Cruzain enzymatic inhibition assay; assay type: biochemical; settings: for competitive behavior against cruzain: compound at 1 and 0.25 μM, substrate 0.156–10 μM
Chain of cruzain (P25779 123-337 limits assumed): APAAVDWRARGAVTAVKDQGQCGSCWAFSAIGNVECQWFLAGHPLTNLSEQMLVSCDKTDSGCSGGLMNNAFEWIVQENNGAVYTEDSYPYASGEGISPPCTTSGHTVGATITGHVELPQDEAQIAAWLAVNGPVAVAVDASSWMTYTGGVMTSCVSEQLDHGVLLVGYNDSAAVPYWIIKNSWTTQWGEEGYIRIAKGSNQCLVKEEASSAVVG

## CN(C)CCCNCc1ccc(-c2ccc(Br)cc2)o1 [Compound 12]
Cruzain or TbrCatL
  average inhibition against cruzain or TbrCatL: greater than 70%

## O=C(Cn1ccnc1[N+](=O)[O-])NCc1ccccc1 [Benznidazole]
[1]
  SI: selectivity index determined as CC50/EC50: > 9

## Clc1cc(Br)ccc1-c1ccc(CNCC2CCNCC2)o1 [MB12, 1-(5-(4-bromo-2-chlorophenyl)furan-2-yl)-N-(piperidin-4-ylmethyl)methanamine]
Cathepsins S (human)
  inhibition of cathepsin S: did not inhibit
Cathepsins B (rat)
  inhibition of cathepsin B: did not inhibit
macrophages
  cytotoxicity by lactate dehydrogenase release: no significant cytotoxicity
[2]
  replication of T. cruzi Y strain parasites and release from macrophages: decreased the replication
TbrCatL [3]
  IC50: 50 µM

## Clc1cc(Br)ccc1-c1ccc(CNCCN2CCOCC2)o1 [Compound 39, N-((5-(4-bromo-2-chlorophenyl)furan-2-yl)methyl)-2-morpholinoethan-1-amine dihydrochloride]
[1]
  SI: selectivity index determined as CC50/EC50: > 17

## N/C(S)=N/N=C/c1ccc(-c2ccc(Cl)cc2)o1 [Compound 44, 2-((5-(4-chlorophenyl)furan-2-yl)methylene)hydrazine-1-carbothioamide]
[1]
  SI: selectivity index determined as CC50/EC50: > 18
TbrCatL [4]
  effect of 0.1% Triton X-100 on IC50 against TbrCatL: reduced the compounds’ potencies
cruzain; Table 2 values
  IC50 against cruzain relative to IC50 against TbrCatL (fold higher): up to 25 fold
cruzain
  competitive behavior against cruzain: did not observe competitive behavior

## CN(C)CCCNCc1ccc(-c2ccc(Cl)cc2Cl)o1 [Compound 9]
Cruzain or TbrCatL
  average inhibition against cruzain or TbrCatL: greater than 70%

## NC(=S)N/N=C/c1ccc(-c2ccc(Br)cc2Cl)o1 [Compound 45, 2-((5-(4-bromo-2-chlorophenyl)furan-2-yl)methylene)hydrazine-1-carbothioamide]
[1]
  SI: selectivity index determined as CC50/EC50: > 370
TbrCatL [4]
  effect of 0.1% Triton X-100 on IC50 against TbrCatL: reduced the compounds’ potencies
cruzain
  competitive behavior against cruzain: did not observe competitive behavior
